pIC50: −log10 of the molar value.
Each compound was assayed against HDAC2 (Homo sapiens, UniProt Q92769) (assay: HDAC2 fluorescence inhibition assay (tBoc-Lys(Ac)-AMC)). Details: not given.
Sequence of HDAC2 (Q92769 with tags, fused parts or gaps): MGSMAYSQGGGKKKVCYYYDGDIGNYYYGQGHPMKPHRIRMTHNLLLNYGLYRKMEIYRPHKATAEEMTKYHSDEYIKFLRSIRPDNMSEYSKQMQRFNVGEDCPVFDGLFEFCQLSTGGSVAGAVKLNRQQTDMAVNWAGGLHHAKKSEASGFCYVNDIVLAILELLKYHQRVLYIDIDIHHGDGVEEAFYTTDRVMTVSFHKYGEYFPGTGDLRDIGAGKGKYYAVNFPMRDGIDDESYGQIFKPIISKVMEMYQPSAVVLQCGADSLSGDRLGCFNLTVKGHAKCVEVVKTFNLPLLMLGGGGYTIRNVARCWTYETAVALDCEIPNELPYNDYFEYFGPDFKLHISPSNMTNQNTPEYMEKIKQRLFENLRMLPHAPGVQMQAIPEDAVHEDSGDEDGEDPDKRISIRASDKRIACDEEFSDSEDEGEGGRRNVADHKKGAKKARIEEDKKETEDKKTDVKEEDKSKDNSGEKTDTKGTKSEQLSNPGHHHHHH

Row | SMILES | pIC50
1 | Nc1ccccc1NC(=O)c1ccc(Cn2nc3ccccc3c2Cl)cc1 [Example 61, N-(2-aminophenyl)-4-((3-chloro-2H-indazol-2-yl)methyl)benzamide] | ≥ 7.30
2 | Nc1ccccc1NC(=O)c1ccc(Cn2ccc3cccnc32)cc1 [Example 157, 4-((1H-Pyrrolo[2,3-b]pyridin-1-yl)methyl)-N-(2-aminophenyl)benzamide] | 6.30 to 7.00
3 | Nc1ccccc1NC(=O)c1ccc(Cn2ncc3c(F)cc(F)cc32)cc1 [Example 44, N-(2-aminophenyl)-4-((4,6-difluoro-1H-indazol-1-yl)methyl)benzamide] | 7.00 to 7.30
4 | Cc1c2c(F)cccc2nn1Cc1ccc(C(=O)Nc2ccccc2N)cc1 [Example 55, N-(2-aminophenyl)-4-((4-fluoro-3-methyl-2H-indazol-2-yl)methyl)benzamide] | 7.00 to 7.30
5 | Nc1ccccc1NC(=O)c1ccc(Cn2cc(C(=O)NCC3CC3)cn2)cc1 [Example 139, 1-(4-(2-aminophenylcarbamoyl)benzyl)-N-(cyclopropylmethyl)-1H-pyrazole-4-carboxamide] | 7.00 to 7.30
6 | CC(c1ccc(C(=O)Nc2ccccc2N)cc1)n1cc2ccccc2n1 (stereo not drawn) [Example 109, 4-(1-(2H-indazol-2-yl)ethyl)-N-(2-aminophenyl)benzamide] | 7.00 to 7.30
7 | COC(=O)c1ccc(N)c(NC(=O)c2ccc(Cn3cc4ccccc4n3)cc2)c1 [Example 33, Methyl 3-(4-((2H-indazol-2-yl)methyl)benzamido)-4-aminobenzoate] | ≤ 6.30
8 | Nc1ccccc1NC(=O)c1ccc(Cn2ncc3cc(NC(=O)N4CCOCC4)ccc32)cc1 [Example 21, N-(1-(4-((2-Aminophenyl)carbamoyl)benzyl)-1H-indazol-5-yl)morpholine-4-carboxamide] | ≥ 7.30
9 | Nc1ccccc1NC(=O)c1ccc(Cn2nc(N)c3cc(C(F)(F)F)ccc32)cc1 [Example 63, 4-((3-amino-5-(trifluoromethyl)-1H-indazol-1-yl)methyl)-N-(2-aminophenyl)benzamide] | 7.00 to 7.30
10 | Nc1ccccc1NC(=O)c1ccc(Cn2cc3ccccc3n2)cc1 [Example 2, 4-((2H-indazol-2-yl)methyl)-N-(2-aminophenyl)benzamide] | 7.00 to 7.30
11 | Nc1ccccc1NC(=O)c1ccc(Cn2cc3cc(NC(=O)N4CCOCC4)ccc3n2)cc1 [Example 18, N-(2-(4-((2-Aminophenyl)carbamoyl)benzyl)-2H-indazol-5-yl)morpholine-4-carboxamide] | ≥ 7.30
12 | Nc1ccccc1NC(=O)c1ccc(Cn2ncc3ccccc32)s1 [Example 24, 5-((1H-Indazol-1-yl)methyl)-N-(2-aminophenyl)thiophene-2-carboxamide] | 6.30 to 7.00
13 | Cc1nn(Cc2ccc(C(=O)Nc3ccccc3N)cc2)c2ccc(C(F)(F)F)cc12 [Example 94, N-(2-aminophenyl)-4-((3-methyl-5-(trifluoromethyl)-1H-indazol-1-yl)methyl)benzamide] | 7.00 to 7.30
14 | Nc1ccc(-c2ccccc2)cc1NC(=O)c1ccc(Cn2cc3cccnc3n2)cc1 [Example 26, N-(4-Amino-biphenyl-3-yl)-4-pyrazolo[3,4-b]pyridin-2-ylmethyl-benzamide] | ≥ 7.30
15 | COc1ccc2c(C)nn(Cc3ccc(C(=O)Nc4cc(-c5cccs5)ccc4N)cc3)c2c1 [Example 114, N-(2-amino-5-(thiophen-2-yl)phenyl)-4-((6-methoxy-3-methyl-1H-indazol-1-yl)methyl)benzamide] | 7.00 to 7.30
16 | CC(=O)Nc1ccc2c(c1)c(N)nn2Cc1ccc(C(=O)Nc2ccccc2N)cc1 [Example 105, 4-((5-acetamido-3-amino-1H-indazol-1-yl)methyl)-N-(2-aminophenyl)benzamide] | 7.00 to 7.30
17 | COc1ccc2c(C)n(Cc3ccc(C(=O)Nc4ccccc4N)cc3)nc2c1 [Example 67, N-(2-aminophenyl)-4-((6-methoxy-3-methyl-2H-indazol-2-yl)methyl)benzamide] | ≥ 7.30
18 | Nc1ccccc1NC(=O)c1ccc(Cn2cc(C(=O)NCc3cccnc3)cn2)cc1 [Example 145, 1-(4-(2-aminophenylcarbamoyl)benzyl)-N-(pyridin-3-ylmethyl)-1H-pyrazole-4-carboxamide] | ≥ 7.30
19 | Nc1ccccc1NC(=O)c1ccc(Cn2ncc3c(C(F)(F)F)cccc32)cc1 [Example 117, N-(2-aminophenyl)-4-((4-(trifluoromethyl)-1H-indazol-1-yl)methyl)benzamide] | 7.00 to 7.30
20 | Cc1cnn(Cc2ccc(C(=O)Nc3ccccc3N)cc2)c1 [Example 34, N-(2-aminophenyl)-4-((4-methyl-1H-pyrazol-1-yl)methyl)benzamide] | 6.30 to 7.00
21 | CCCNC(=O)c1cnn(Cc2ccc(C(=O)Nc3ccccc3N)cc2)c1 [Example 149, 1-(4-(2-aminophenylcarbamoyl)benzyl)-N-propyl-1H-pyrazole-4-carboxamide] | ≥ 7.30
22 | Nc1ncncc1NC(=O)c1ccc(Cn2cc3ccccc3n2)cc1 [Example 104, 4-((2H-indazol-2-yl)methyl)-N-(4-aminopyrimidin-5-yl)benzamide] | ≤ 6.30

Row | SMILES | pIC50
23 | Nc1ccccc1NC(=O)c1ccc(Cn2cc3cc(C(F)(F)F)ccc3n2)cc1 [Example 120, N-(2-aminophenyl)-4-((5-(trifluoromethyl)-2H-indazol-2-yl)methyl)benzamide] | 7.00 to 7.30
24 | Nc1ccccc1NC(=O)c1ccc(Cn2cc(C(=O)NCCN3CCCCC3)cn2)cc1 [Example 155, 1-(4-(2-aminophenylcarbamoyl)benzyl)-N-(2-(piperidin-1-yl)ethyl)-1H-pyrazole-4-carboxamide] | ≥ 7.30
25 | CC(=O)Nc1ccc2c(C)n(Cc3ccc(C(=O)Nc4ccccc4N)cc3)nc2c1 [Example 86, 4-((6-acetamido-3-methyl-2H-indazol-2-yl)methyl)-N-(2-aminophenyl)benzamide] | ≥ 7.30
26 | Cc1c2cc(F)ccc2nn1Cc1ccc(C(=O)Nc2ccccc2N)cc1 [Example 71, N-(2-aminophenyl)-4-((5-fluoro-3-methyl-2H-indazol-2-yl)methyl)benzamide] | 7.00 to 7.30
27 | Nc1ccc(-c2cccs2)cc1NC(=O)c1ccc(Cn2ncc3c(F)cc(F)cc32)cc1 [Example 113, N-(2-amino-5-(thiophen-2-yl)phenyl)-4-((4,6-difluoro-1H-indazol-1-yl)methyl)benzamide] | 6.30 to 7.00
28 | Nc1ccccc1NC(=O)c1ccc(Cn2cc(C(=O)NC3CC3)cn2)cc1 [Example 138, 1-(4-(2-aminophenylcarbamoyl)benzyl)-N-cyclopropyl-1H-pyrazole-4-carboxamide] | 7.00 to 7.30
29 | Nc1ccccc1NC(=O)c1ccc(Cn2cc3ccccc3n2)s1 [Example 19, 5-((2H-Indazol-2-yl)methyl)-N-(2-aminophenyl)thiophene-2-carboxamide] | 6.30 to 7.00
30 | CC(=O)Nc1ccc2c(c1)c(C)nn2Cc1ccc(C(=O)Nc2ccccc2N)cc1 [Example 107, 4-((5-acetamido-3-methyl-1H-indazol-1-yl)methyl)-N-(2-aminophenyl)benzamide] | 7.00 to 7.30
31 | Nc1ccccc1NC(=O)c1ccc(Cn2ncc3cc(F)ccc32)cc1 [Example 37, N-(2-aminophenyl)-4-((5-fluoro-1H-indazol-1-yl)methyl)benzamide] | 7.00 to 7.30
32 | Nc1ccccc1NC(=O)c1ccc(Cn2cccn2)cc1 [Example 31, 4-((1H-pyrazol-1-yl)methyl)-N-(2-aminophenyl)benzamide] | ≤ 6.30
33 | Nc1ccccc1NC(=O)c1ccc(Cn2ncc3cc(C(F)(F)F)ccc32)cc1 [Example 119, N-(2-aminophenyl)-4-((5-(trifluoromethyl)-1H-indazol-1-yl)methyl)benzamide] | 7.00 to 7.30
34 | Nc1ccccc1NC(=O)c1ccc(Cn2cc3cc([N+](=O)[O-])ccc3n2)cc1 [Example 8, N-(2-aminophenyl)-4-((5-nitro-2H-indazol-2-yl)methyl)benzamide] | ≥ 7.30
35 | CC(=O)Nc1ccc2cnn(Cc3ccc(C(=O)Nc4ccccc4N)cc3)c2c1 [Example 89, 4-((6-acetamido-1H-indazol-1-yl)methyl)-N-(2-aminophenyl)benzamide] | ≥ 7.30
36 | COCCNC(=O)c1cnn(Cc2ccc(C(=O)Nc3ccccc3N)cc2)c1 [Example 151, 1-(4-(2-aminophenylcarbamoyl)benzyl)-N-(2-methoxyethyl)-1H-pyrazole-4-carboxamide] | 7.00 to 7.30
37 | Nc1ccccc1NC(=O)c1ccc(Cn2cc3cc(NC(=O)OCc4ccccc4)ccc3n2)cc1 [Example 16, Benzyl 2-(4-((2-aminophenyl)carbamoyl)benzyl)-2H-indazol-5-ylcarbamate] | ≥ 7.30
38 | CC(=O)Nc1ccc2c(C)nn(Cc3ccc(C(=O)Nc4ccccc4N)cc3)c2c1 [Example 87, 4-((6-acetamido-3-methyl-1H-indazol-1-yl)methyl)-N-(2-aminophenyl)benzamide] | 7.00 to 7.30
39 | Nc1ccccc1NC(=O)c1ccc(CCn2cc3ccccc3n2)cc1 [Example 41, 4-(2-(2H-indazol-2-yl)ethyl)-N-(2-aminophenyl)benzamide] | 7.00 to 7.30
40 | Nc1ccccc1NC(=O)c1ccc(Cc2c[nH]c3ccccc23)cc1 [Example 158, 4-((1H-Indol-3-yl)methyl)-N-(2-aminophenyl)benzamide] | 7.00 to 7.30
41 | CC(=O)Nc1ccc2cn(Cc3ccc(C(=O)Nc4ccccc4N)cc3)nc2c1 [Example 90, 4-((6-acetamido-2H-indazol-2-yl)methyl)-N-(2-aminophenyl)benzamide] | ≥ 7.30
42 | COC(=O)Nc1ccc2c(cnn2Cc2ccc(C(=O)Nc3ccccc3N)cc2)c1 [Example 14, Methyl 1-(4-((2-aminophenyl)carbamoyl)benzyl)-1H-indazol-5-ylcarbamate] | ≥ 7.30
43 | COc1cc2cn(Cc3ccc(C(=O)Nc4ccccc4N)cc3)nc2cc1OC [Example 98, N-(2-aminophenyl)-4-((5,6-dimethoxy-2H-indazol-2-yl)methyl)benzamide] | ≥ 7.30
44 | CNC(=O)c1cnn(Cc2ccc(C(=O)Nc3ccccc3N)cc2)c1 [Example 134, 1-(4-(2-aminophenylcarbamoyl)benzyl)-N-methyl-1H-pyrazole-4-carboxamide] | 7.00 to 7.30

Same assay, conditions: read-out: IC50 of selected exemplified compounds against HDAC2; 50 μM tBoc-Lys(Ac)-AMC, 1 nM HDAC2, 60 minutes at room temperature

Row | SMILES | pIC50
45 | CC(=O)Nc1ccc2c(cnn2Cc2ccc(C(=O)Nc3ccccc3N)cc2)c1 [Example 102, 4-((5-acetamido-1H-indazol-1-yl)methyl)-N-(2-aminophenyl)benzamide] | ≤ 6.30
